Reference: article PMC8158844 (ACS Omega, 2021)
Marks after values point to notes of the source that are not given here.

Assays:
porcine albumin = porcine albumin (Sus scrofa, UniProt P08835); assay: Stability in porcine albumin solution; format: in vitro ADME; conditions: porcine albumin 17.5 mg/mL in PBS; 30 min, 37 °C
[1] = Metabolic stability in porcine blood plasma; format: in vitro ADME; conditions: Table 3; 30 min, 37 °C; n = 3 unless otherwise stated
[2] = Metabolic stability in porcine liver S9 fraction; format: in vitro ADME; conditions: 30 min; for stability porcine liver S9 fractions (percent of parent remaining): 37 °C, no NADPH added; for stability in the absence of BNNP (percent of parent remaining) / stability in the presence of BNNP (percent of parent remaining): porcine liver homogenate; for stability in the presence of BNNP (percent of parent remaining): carboxylesterase 1 inhibitor BNPP 1 mM
[3] = Chemical stability in aqueous solution; format: physicochemical; conditions: for stability in PBS buffer (percent of parent remaining): PBS buffer pH 7.4 with 0.2% Triton X-100, 60 min, 37 °C
FAAH = biological target: T1, FAAH (Rattus norvegicus, UniProt P97612); assay: Inhibition of fatty acid amide hydrolase; format: biochemical
T1 sequence (P97612 1-579): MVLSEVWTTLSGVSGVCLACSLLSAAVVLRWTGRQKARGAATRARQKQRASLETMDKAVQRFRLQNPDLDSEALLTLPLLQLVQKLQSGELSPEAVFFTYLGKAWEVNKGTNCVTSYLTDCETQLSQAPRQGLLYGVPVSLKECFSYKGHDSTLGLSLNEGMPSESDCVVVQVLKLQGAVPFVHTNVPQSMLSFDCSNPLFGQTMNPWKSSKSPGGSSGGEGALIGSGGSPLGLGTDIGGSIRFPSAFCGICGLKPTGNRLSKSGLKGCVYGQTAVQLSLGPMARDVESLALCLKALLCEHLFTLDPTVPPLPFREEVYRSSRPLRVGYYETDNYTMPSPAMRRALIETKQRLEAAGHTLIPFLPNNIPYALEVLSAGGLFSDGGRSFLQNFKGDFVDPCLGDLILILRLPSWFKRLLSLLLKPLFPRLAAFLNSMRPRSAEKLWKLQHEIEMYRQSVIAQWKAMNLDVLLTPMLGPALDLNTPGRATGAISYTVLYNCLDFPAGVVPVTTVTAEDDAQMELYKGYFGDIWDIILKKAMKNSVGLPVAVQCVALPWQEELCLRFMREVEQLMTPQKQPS

human recombinant MAGL = biological target: T2, human recombinant MAGL (Homo sapiens, UniProt Q99685); assay: Inhibition of monoacylglycerol lipase; format: biochemical
T2 sequence (Q99685 1-303): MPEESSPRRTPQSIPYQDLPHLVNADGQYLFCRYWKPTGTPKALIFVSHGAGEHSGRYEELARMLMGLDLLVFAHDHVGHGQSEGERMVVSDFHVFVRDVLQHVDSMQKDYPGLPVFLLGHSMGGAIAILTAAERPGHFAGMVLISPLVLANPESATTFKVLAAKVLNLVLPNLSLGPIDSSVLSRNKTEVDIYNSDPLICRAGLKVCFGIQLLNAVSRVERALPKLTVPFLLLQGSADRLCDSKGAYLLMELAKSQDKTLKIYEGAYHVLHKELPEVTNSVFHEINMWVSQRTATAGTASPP

porcine albumin, sequence (P08835 25-607): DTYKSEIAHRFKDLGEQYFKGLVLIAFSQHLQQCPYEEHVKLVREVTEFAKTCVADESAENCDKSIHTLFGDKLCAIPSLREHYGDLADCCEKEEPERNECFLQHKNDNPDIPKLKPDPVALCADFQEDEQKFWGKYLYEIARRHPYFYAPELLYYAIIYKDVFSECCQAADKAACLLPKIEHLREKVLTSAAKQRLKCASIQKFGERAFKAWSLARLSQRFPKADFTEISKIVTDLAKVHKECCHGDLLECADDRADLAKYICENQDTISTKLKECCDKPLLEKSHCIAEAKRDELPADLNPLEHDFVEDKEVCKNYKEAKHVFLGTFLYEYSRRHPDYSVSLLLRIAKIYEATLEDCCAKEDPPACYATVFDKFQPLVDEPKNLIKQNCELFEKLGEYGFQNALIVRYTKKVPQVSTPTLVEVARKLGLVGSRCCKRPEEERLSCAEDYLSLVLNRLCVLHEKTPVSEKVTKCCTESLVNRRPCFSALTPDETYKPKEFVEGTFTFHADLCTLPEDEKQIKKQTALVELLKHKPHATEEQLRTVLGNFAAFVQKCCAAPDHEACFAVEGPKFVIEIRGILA

SMILES | stability porcine albumin solution (percent of parent remaining) (porcine albumin) | stability porcine blood plasma (percent of parent remaining) [1] | stability porcine liver S9 fractions (percent of parent remaining) [2] [%] | stability in PBS buffer (percent of parent remaining) [3] [%] | IC50 (FAAH) [nM] | cleavage in PBS buffer (pH 7.4) into the amine and 4-hydroxybenzonitrile ([3]; after 30 min at 37 °C, HPLC/MS) | IC50 (human recombinant MAGL) [nM] | stability in the absence of BNNP (percent of parent remaining) [2] [%] | stability in the presence of BNNP (percent of parent remaining) [2] [%] | inhibition at 10 µM (human recombinant MAGL; read-out: MAGL inhibition at 10 μM) [%] | decrease in FAAH inhibitory activity compared with compound 14 (FAAH; ratio of FAAH IC50 values)
O=C(NCCCCCn1ccc2ccc(F)cc21)Oc1ccc(F)cc1 [Compound 26, 4-Fluorophenyl N-[5-(6-Fluoroindol-1-yl)pentyl]carbamate] | 91 ± 6^n = 5% | 59 ± 13^n = 6% | 69 ± 4 | >95 | 49 | – | – | – | – | – | –
N#Cc1ccc(OC(=O)NCCCCCn2ccc3ccc(F)cc32)cc1 [Compound 29, 4-Cyanophenyl N-[5-(6-Fluoroindol-1-yl)pentyl]carbamate] | – | – | – | 12 ± 3 | – | nearly totally cleaved | – | – | – | – | –
N#Cc1cccc(OC(=O)NCCCCCn2ccc3ccc(F)cc32)c1 [Compound 30] | <5% | < 5% | 49 ± 4 | 72 ± 3 | 8 | – | 380 | – | – | – | –
N#Cc1ccccc1OC(=O)NCCCCCn1ccc2ccc(F)cc21 [Compound 31] | – | – | – | 3 ± 2 | – | – | – | – | – | – | –
O=C(NCCCCCn1ccc2ccc(F)cc21)Oc1ccc(C(=O)O)cc1 [Compound 33, 4-({[5-(6-Fluoroindol-1-yl)pentyl]carbamoyl}oxy)benzoic Acid] | 90 ± 9% | 37 ± 2% | 59 ± 6 | >95 | 12 | – | 3300 | 59 ± 6 | 81 ± 8 | – | –
O=C(NCCCCCn1ccc2ccc(F)cc21)Oc1cccc(C(=O)O)c1 [Compound 35] | 93 ± 3% | 78 ± 1% | 74 ± 2 | >95 | 18 | – | > 10000 | – | – | 31 | –
O=C(NCCCCCn1ccc2ccc(F)cc21)Oc1cccc2[nH]ccc12 [Compound 49, Indol-4-yl N-[5-(6-Fluoroindol-1-yl)pentyl]carbamate] | 81 ± 6% | 80 ± 3% | 78 ± 4 | >95 | 180 | – | – | – | – | – | about 6 fold
O=C(O)c1ccc(OC(=O)N2CCC(CCn3ccc4ccc(F)cc43)CC2)cc1 [Compound 54, 4-({4-[2-(6-Fluoroindol-1-yl)ethyl]piperidine-1-carbonyl}oxy)benzoic Acid] | 93 ± 8% | 94 ± 3% | 66 ± 9 | >95 | 15 | – | – | – | – | – | –
O=C(O)c1cccc(OC(=O)N2CCC(CCn3ccc4ccc(F)cc43)CC2)c1 [Compound 56] | 94 ± 3% | >95% | 72 ± 7 | >95 | 27 | – | – | – | – | – | –
O=C(O)c1ccccc1OC(=O)N1CCC(CCn2ccc3ccc(F)cc32)CC1 [Compound 58] | 89 ± 6% | >95% | 72 ± 6 | >95 | 3500 | – | – | – | – | – | –
CCOC(=O)C1=C[C@@H](OC(CC)CC)[C@H](NC(C)=O)[C@@H](N)C1 [oseltamivir, reference compound] | – | – | – | – | – | – | – | 11 ± 2 | 97 ± 1 | – | –
